Results: PubChem BioAssay AID248 (DTP/NCI, 2004)
Values joined by “and” are separate entries in the source; they are usually repeats but may differ in a detail not shown here. Equal entries are not always repeated. Inconclusive results and toxic doses are left out.

Test system: L1210 leukemia ip in BDF1 mice, survival T/C
Experiment: NCI In Vivo Anticancer Drug Screen. Data for tumor model L1210 Leukemia (intraperitoneal) in B6D2F1 (BDF1) mice
Conditions: endpoint: mean survival time, higher = longer survival
Outline: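 Ratio derived from survival: compound-dosed mice over vehicle-dosed mice, all bearing a transplantable tumor.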

For O=C1CC(c2ccc(OCN(CCCl)CCCl)cc2)CC(=O)C1CN(CCCl)CCCl (stereo not given), the T/C (dose: 0.2 mg/kg/injection, schedule: Q01DX009 (ip), vehicle: carboxymethylcellulose (CMC)) was 95 % of control, the T/C (dose: 0.37 mg/kg/injection, schedule: Q01DX009 (ip), vehicle: saline) was 122 % of control and the T/C (dose: 0.39 mg/kg/injection, schedule: Q01DX009 (ip), vehicle: carboxymethylcellulose (CMC)) was 102 % of control. For the same compound, the T/C (dose: 0.5 mg/kg/injection, schedule: Q01DX009 (ip), vehicle: carboxymethylcellulose (CMC)) was 101 % of control, the T/C (dose: 0.9 mg/kg/injection, schedule: Q01DX009 (ip), vehicle: carboxymethylcellulose (CMC)) was 107 % of control and the T/C (dose: 1.0 mg/kg/injection, schedule: Q01DX009 (ip), vehicle: carboxymethylcellulose (CMC)) was 104 % of control. The T/C (dose: 1.4 mg/kg/injection, schedule: Q01DX009 (ip), vehicle: carboxymethylcellulose (CMC)) was 87 % of control, the T/C (dose: 2.0 mg/kg/injection, schedule: Q01DX001 (ip), vehicle: saline) was 193 % of control and the T/C (dose: 2.0 mg/kg/injection, schedule: Q01DX009 (ip), vehicle: carboxymethylcellulose (CMC)) was 114 % of control. The T/C (dose: 3.0 mg/kg/injection, schedule: Q01DX009 (ip), vehicle: saline) was 106 % of control and 90 % of control, the T/C (dose: 4.0 mg/kg/injection, schedule: Q01DX001 (ip), vehicle: saline) was 104 % of control and 109 % of control and the T/C (dose: 6.0 mg/kg/injection, schedule: Q04DX003 (ip), vehicle: saline) was 123 % of control. For the same compound, the T/C (dose: 6.6 mg/kg/injection, schedule: Q01DX009 (ip), vehicle: carboxymethylcellulose (CMC)) was 157 % of control, the T/C (dose: 7.5 mg/kg/injection, schedule: Q01DX001 (ip), vehicle: saline) was 122 % of control and the T/C (dose: 8.58 mg/kg/injection, schedule: Q01DX001 (ip), vehicle: carboxymethylcellulose (CMC)) was 124 % of control. The T/C (dose: 10.0 mg/kg/injection, schedule: Q01DX009 (ip), vehicle: carboxymethylcellulose (CMC)) was 93 % of control, the T/C (dose: 13.0 mg/kg/injection, schedule: Q01DX001 (ip), vehicle: carboxymethylcellulose (CMC)) was 114 % of control and the T/C (dose: 19.5 mg/kg/injection, schedule: Q01DX001 (ip), vehicle: carboxymethylcellulose (CMC)) was 118 % of control. For the same compound, the T/C (dose: 0.1 micrograms/kg/injection, schedule: Q01DX001 (ip), vehicle: saline) was 100 % of control, the T/C (dose: 0.2 micrograms/kg/injection, schedule: Q01DX001 (ip), vehicle: saline) was 102 % of control and the T/C (dose: 0.5 micrograms/kg/injection, schedule: Q01DX001 (ip), vehicle: saline) was 100 % of control. For the same compound, the T/C (dose: 1.0 micrograms/kg/injection, schedule: Q01DX001 (ip), vehicle: saline) was 100 % of control.

CCCCCCCCCCCCCCCC(=O)N(CC#N)CC#N was tested, and the T/C (dose: 100.0 mg/kg/injection, schedule: Q04DX003 (ip), vehicle: Klucel (hydroxypropylcellulose) (HPC)) was 91 % of control, the T/C (dose: 200.0 mg/kg/injection, schedule: Q04DX003 (ip), vehicle: Klucel (hydroxypropylcellulose) (HPC)) was 92 % of control and the T/C (dose: 400.0 mg/kg/injection, schedule: Q04DX003 (ip), vehicle: Klucel (hydroxypropylcellulose) (HPC)) was 89 % of control.
